Converted amounts (≈) assume the structure as drawn. “And” between values parts separate entries of the source, which are not always exact repeats. Equal entries are not always repeated.
Legend:
[1] = target: T1, Eg513-437 (Homo sapiens, UniProt P52732); assay: Inhibition of kinesin Eg5 activity, recombinant Eg513-437; format: biochemical; conditions: recombinant Eg513-437 (Table 4)
T1 construct: read as Eg5 residues 13-437
T1 sequence (P52732 1-1056): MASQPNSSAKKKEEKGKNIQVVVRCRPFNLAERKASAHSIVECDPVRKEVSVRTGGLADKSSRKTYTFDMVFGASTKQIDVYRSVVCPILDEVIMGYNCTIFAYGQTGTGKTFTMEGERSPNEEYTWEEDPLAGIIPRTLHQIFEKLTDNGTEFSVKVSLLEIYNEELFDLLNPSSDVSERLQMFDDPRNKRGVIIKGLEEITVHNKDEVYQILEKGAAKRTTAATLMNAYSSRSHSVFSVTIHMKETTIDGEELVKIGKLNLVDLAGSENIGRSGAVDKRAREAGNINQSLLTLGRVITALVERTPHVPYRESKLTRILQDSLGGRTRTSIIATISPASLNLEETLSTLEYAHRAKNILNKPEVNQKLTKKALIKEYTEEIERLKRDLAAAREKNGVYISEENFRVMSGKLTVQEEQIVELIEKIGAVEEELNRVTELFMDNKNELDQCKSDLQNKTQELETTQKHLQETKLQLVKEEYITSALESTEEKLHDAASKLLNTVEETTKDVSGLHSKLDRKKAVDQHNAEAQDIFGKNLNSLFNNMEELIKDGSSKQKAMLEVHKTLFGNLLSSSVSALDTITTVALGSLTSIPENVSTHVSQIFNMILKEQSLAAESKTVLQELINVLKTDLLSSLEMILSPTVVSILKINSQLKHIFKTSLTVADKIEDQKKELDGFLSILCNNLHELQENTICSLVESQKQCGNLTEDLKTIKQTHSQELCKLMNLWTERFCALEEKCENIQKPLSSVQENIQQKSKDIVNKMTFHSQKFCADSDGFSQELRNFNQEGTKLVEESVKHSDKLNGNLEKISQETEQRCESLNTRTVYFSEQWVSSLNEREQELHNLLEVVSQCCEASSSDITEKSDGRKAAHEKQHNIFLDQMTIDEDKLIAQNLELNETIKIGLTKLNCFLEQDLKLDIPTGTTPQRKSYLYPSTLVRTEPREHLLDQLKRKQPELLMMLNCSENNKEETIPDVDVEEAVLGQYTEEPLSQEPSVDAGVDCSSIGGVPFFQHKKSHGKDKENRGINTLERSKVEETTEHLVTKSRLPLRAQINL
Excerpt: (§1) In an in vitro test, compound 1 was examined for inhibition of Eg5 activity [Kodama, T. et al. J. Biochem. 99: 1465-1472 (1986)].
(§2) Here, the recombinant kinesins Eg513-437 (Table 3) and Eg51-406 (Table 4) were used.
(§3) Tables 4 and 5 state the EC50 values of Eg5 inhibition for the compound 1 according to the invention.

[2] = target: T2, Eg51-406 (Homo sapiens, UniProt P52732); assay: Inhibition of kinesin Eg5 activity, recombinant Eg51-406; format: biochemical; conditions: recombinant Eg51-406 (Table 5)
T2 construct: read as Eg5 residues 1-406
T2 sequence (P52732 1-1056): T1 sequence (P52732 1-1056)
Excerpt: as §1, §2, §3

[3] = tested on: lung carcinoma cell line NCI-H460; assay: Proliferation test (cellular dehydrogenase activity), NCI-H460; format: cell-based; conditions: Homo sapiens
Excerpt: (§4) The antiproliferative activity of the compounds 1, 2, 4, 6, 7, 9, 10, 11, 12 and 13 according to the invention was investigated in a proliferation test performed on established tumor cell lines (D. A. Scuderio et al. Cancer Res. 1988, 48: 4827-4833).
(§5) The test used determines the cellular dehydrogenase activity and makes it possible to determine cell viability and determine cell number indirectly.
(§6) The cell lines used are the human cervical carcinoma cell line KB/HeLa (ATCC CCL17), the ovarian adenocarcinoma cell line SKOV-3 (ATCC HTB77), the human glioblastoma cell line SF-268 (NCI-503138) and the lung carcinoma cell line NCI-H460 (NCI-503473). In addition, an RKOp27 cell system was used for investigating the cell cycle-specific effect of the substance (M. Schmidt et al. Oncogene 2000, 19(20): 2423-9).

[4] = tested on: RKOp27 human colon carcinoma cells, p27kiP1 induced; assay: Proliferation test, RKOp27 cell system with induced p27kiP1 expression; format: cell-based; conditions: RKOp27 with induced expression of p27kiP1, read-out: RKOP27ind EC50
Excerpt: as §4, §5, §6
RKO is a human colon carcinoma line in which expression of the cell cycle inhibitor p27^kiP1 can be induced using the ecdysone expression system and lead to cell cycle arrest specifically in […].
By contrast, cell cycle-specific substances, such as, for example, tubulin inhibitors, are only cytotoxic when cells are not arrested and the cell cycle is passed through.

EC50 [1]: 6.92 µM and 7.24 µM and 5.46 µM and 5.9 µM | EC50 [2]: 37.1 µM | EC50 [3]: 0.146 µg/mL (≈ 0.426 µM) | EC50 [4]: > 3.16 µg/mL
Structure (SMILES): O=C(C=C1c2ccccc2C(=O)c2ccccc21)c1ccc(O)c(O)c1 [Compound 1, 10-[2-(3,4-dihydroxy-phenyl)-2-oxo-ethylidene]-10H-anthracen-9-one]

From patent US20080051463A1, “ANTHRACENE COMPOUNDS AND THEIR USE FOR TREATING BENIGN AND MALIGNANT TUMOR DISORDERS” (AETERNA ZENTARIS GmbH, priority 2006, published 2008)
